Experimental data: US4876269A (priority 1987, dated 1989)
Read-outs that look alike come from different tables or passages of the source.

How the values were obtained:
[1] = set-up: species or system male white mice (CF1); conditions: mouse, in vivo; for ED50 (effective analgesic dose in 50% of the mice), p.o.: po; for ED50 (effective analgesic dose in 50% of the mice), s.c.: sc
kappa receptor [2] = conditions: rat, in vivo
kappa receptor [3] = conditions: rat, in vivo; cited from earlier work

Compound	ED50 (effective analgesic dose in 50% of the mice), p.o. [1] [mg/kg]	ED50 (effective analgesic dose in 50% of the mice), s.c. [1] [mg/kg]	also measured
CN(C(=O)Cc1ccc(Cl)c(Cl)c1)[C@@H]1c2ccccc2OC[C@H]1N1CCCC1 (relative stereo) [Example 7, trans-3,4-Dichloro-N-methyl-N-[3,4-dihydro-3-(pyrrolidin-1-yl)-2H-benzopyran-4-yl]benzeneacetamide]	36	1.7	–
CN(C(=O)Cc1ccc(Br)cc1)[C@@H]1c2ccccc2CC[C@H]1N1CCCC1 (relative stereo) [Example 10]	54.	8.1	–
CN(C(=O)Cc1ccccc1)[C@@H]1c2ccccc2CC[C@H]1N1CCCC1 (relative stereo) [Example 11]	> 81.	30.	–
CN(C(=O)Cc1ccc(C(F)(F)F)cc1)[C@@H]1c2ccccc2CC[C@H]1N1CCCC1 (relative stereo) [Example 12]	54.	19.	–
CN(C(=O)Cc1ccc(Cl)c(Cl)c1)[C@@H]1c2cccc(OC(=O)c3ccccc3)c2CC[C@H]1N1CCCC1.Cl (relative stereo) [Example 16, trans-3,4-dichloro-N-methyl-N-[2-(pyrrolidin-1-yl)-5-benzoyloxy-1,2,3,4-tetrahydronaphth-1-yl]benzeneacetamide hydrochloride]	10.	0.71	–
CN(C(=O)Cc1ccccc1)[C@@H]1c2ccccc2OC[C@H]1N1CCCC1.Cl (relative stereo) [Example 19, trans-N-methyl-N-[3,4-dihydro-3-(pyrrolidin-1-yl)-2H-benzopyran-4-yl]benzeneacetamide hydrochloride]	36.	1.7	–
COc1cccc2c1OC[C@@H](N1CCCC1)[C@@H]2N(C)C(=O)Cc1ccc(Cl)c(Cl)c1.Cl (relative stereo) [Example 20, trans-3,4-dichloro-N-methyl-N-[3,4-dihydro-8-methoxy-3-(pyrrolidin-1-yl)-2H-benzopyran-4yl]benzeneacetamide hydrochloride]	30.	1.2	–
COCc1c(O)ccc2c1CC[C@@H](N1CCCC1)[C@@H]2N(C)C(=O)Cc1ccc(Cl)c(Cl)c1 (relative stereo) [Example 25]	54.	0.19	–
COCOc1cccc2c1CC[C@@H](N1CCCC1)[C@@H]2N(C)C(=O)Cc1ccc(Cl)c(Cl)c1 (relative stereo) [Example 48]	13.	4.5	–
COc1cccc2c1CC[C@@H](N1CC=CC1)[C@@H]2N(C)C(=O)Cc1ccc(Cl)c(Cl)c1.Cl (relative stereo) [Example 50, trans-3,4-dichloro-N-methyl-N-[2-(2,5-dihydro-1H-pyrrol-1-yl)-5-methoxy-1,2,3,4-tetrahydronaphth-1-yl]benzeneacetamide hydrochloride]	3.4	0.24	–
CN(C)C(=S)Oc1cccc2c1CC[C@@H](N1CCCC1)[C@@H]2N(C)C(=O)Cc1ccc(Cl)c(Cl)c1.Cl (relative stereo) [Example 68, trans-3,4-dichloro-N-methyl-N-[2-(pyrrolidin-1-yl)-5-(N,N-dimethylthiocarbamoyloxy)-1,2,3,4-tetrahydronaphth-1-yl]benzeneacetamide hydrochloride]	18.	1.7	–
CN(C(=O)Cc1ccc(Cl)c(Cl)c1)[C@@H]1c2c(ccc3ccccc23)CC[C@H]1N1CCCC1 (relative stereo) [Example 69]	16.	3.0	–
CN1CC[C@]23c4c5ccc(O)c4O[C@H]2[C@@H](O)C=C[C@H]3[C@H]1C5 [Morphine]	3.8	1.0	% increase over control (urine output) (kappa receptor [2]): 48%; increase in urine flow / diuresis, in words (kappa receptor [2]): minimal or no diuresis; mean cumulative urine output at 5 hours (kappa receptor [2]): 1.38 mL; % increase over control (urine output) (kappa receptor [2]; sc): 159%; mean cumulative urine output at 5 hours (kappa receptor [2]; sc): 2.41 mL; toxicity / deaths (kappa receptor [2]; sc): Toxic (2/8 dead); increase in urine flow, in words (kappa receptor [3]): largely devoid of this property
